This note sets out measurements from ChEMBL document CHEMBL1201862, “PubChem BioAssay data set” (2004).

The structures appear in SMILES notation. The source made the active and inactive calls.

For assay [1], the target named is Wee1-like protein kinase (Homo sapiens, UniProt P30291). As to the kind of experiment: Navigating the Kinome. Panel member name: WEE1. The class given is functional.
Assay [2] has as its target ALK tyrosine kinase receptor (Homo sapiens, UniProt Q9UM73). The class given is functional.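 Further: ALK tested as one member of a kinase panel screen.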
Assay [3] addresses LIM domain kinase 1 (Homo sapiens, UniProt P53667). Briefly: Navigating the Kinome. Panel member name: LIMK1. The class given is functional.
For assay [4], the target named is Macrophage colony-stimulating factor 1 receptor (Homo sapiens, UniProt P07333). The class given is functional.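 Further: value comes from the Navigating the Kinome screening panel, CSF1R member.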
The target of assay [5] is Serine/threonine-protein kinase Chk1 (Homo sapiens, UniProt O14757). The class given is functional.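 Further: measured as one member of a kinome-wide kinase profiling panel.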
Sequence of Serine/threonine-protein kinase Chk1 (O14757 whole entry): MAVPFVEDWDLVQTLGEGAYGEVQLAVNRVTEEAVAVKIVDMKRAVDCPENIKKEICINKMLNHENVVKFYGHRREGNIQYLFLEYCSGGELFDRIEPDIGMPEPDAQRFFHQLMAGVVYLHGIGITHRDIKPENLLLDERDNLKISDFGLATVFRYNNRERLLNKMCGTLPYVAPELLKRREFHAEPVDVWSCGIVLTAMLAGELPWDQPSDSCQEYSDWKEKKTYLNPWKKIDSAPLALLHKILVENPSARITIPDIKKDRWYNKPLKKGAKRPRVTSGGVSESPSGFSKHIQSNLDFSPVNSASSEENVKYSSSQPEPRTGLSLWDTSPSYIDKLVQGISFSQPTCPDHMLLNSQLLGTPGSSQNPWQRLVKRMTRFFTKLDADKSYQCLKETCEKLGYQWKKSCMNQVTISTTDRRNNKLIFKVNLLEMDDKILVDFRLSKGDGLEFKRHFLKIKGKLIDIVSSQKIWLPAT
A short description of assay [6]: Vero cell cytotoxicity, dose response, cytotoxicity control for M. tuberculosis growth inhibitor project, Vero cells, purified and synthesized compounds, set 4 (AID 504854). The class given is functional. To be noted: Mycobacterium tuberculosis.
The target in assay [7] is T1, High affinity choline transporter 1 (Homo sapiens, UniProt Q9GZV3).
T1 sequence (Q9GZV3 whole entry): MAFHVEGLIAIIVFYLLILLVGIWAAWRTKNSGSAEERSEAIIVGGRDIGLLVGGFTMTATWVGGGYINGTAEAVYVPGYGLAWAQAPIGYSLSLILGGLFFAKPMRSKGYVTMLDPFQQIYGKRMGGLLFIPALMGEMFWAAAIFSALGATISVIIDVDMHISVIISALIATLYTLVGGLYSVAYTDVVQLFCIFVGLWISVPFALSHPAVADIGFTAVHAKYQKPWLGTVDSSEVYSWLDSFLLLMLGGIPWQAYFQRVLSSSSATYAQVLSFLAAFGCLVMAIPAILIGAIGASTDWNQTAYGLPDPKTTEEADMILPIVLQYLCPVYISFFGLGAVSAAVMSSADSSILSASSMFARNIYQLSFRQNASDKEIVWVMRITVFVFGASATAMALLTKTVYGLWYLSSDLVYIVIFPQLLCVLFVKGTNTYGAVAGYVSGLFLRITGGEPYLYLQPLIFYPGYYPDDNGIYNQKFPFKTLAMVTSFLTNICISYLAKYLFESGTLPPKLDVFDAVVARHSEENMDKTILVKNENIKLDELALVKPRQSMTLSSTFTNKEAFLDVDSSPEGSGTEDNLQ
Briefly: human choline transporter blockers, potency – cell-based, 10-point CRC, membrane potential dye, dose response (AID 588401).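 Further: membrane potential dye fluorescence of choline-evoked depolarization via CHT.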 The class given is functional.

Assay [8] has as its target FAD-linked sulfhydryl oxidase ALR (Homo sapiens, UniProt P55789). As to the kind of experiment: ALR-catalysed DTT oxidation blockers – biochemical, H2O2 detection, luminescence, cherry-pick, dose response (AID 493248).
For assay [9], the target named is T1, High affinity choline transporter 1. Briefly: human choline transporter blockers, potency – cell-based, 5-point CRC, membrane potential dye, dose response (AID 504840). The class given is functional.
The target of assay [10] is Mitogen-activated protein kinase kinase kinase kinase 5 (Homo sapiens, UniProt Q9Y4K4). The class given is functional.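 Further: measured as one member of a kinome-spanning kinase panel.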
Assay [11] deals with Aurora kinase B (Homo sapiens, UniProt Q96GD4). The class given is functional.
The target of assay [12] is Serine/threonine-protein kinase pim-1 (Homo sapiens, UniProt P11309). The class given is functional.
Sequence of Serine/threonine-protein kinase pim-1 (P11309 whole entry): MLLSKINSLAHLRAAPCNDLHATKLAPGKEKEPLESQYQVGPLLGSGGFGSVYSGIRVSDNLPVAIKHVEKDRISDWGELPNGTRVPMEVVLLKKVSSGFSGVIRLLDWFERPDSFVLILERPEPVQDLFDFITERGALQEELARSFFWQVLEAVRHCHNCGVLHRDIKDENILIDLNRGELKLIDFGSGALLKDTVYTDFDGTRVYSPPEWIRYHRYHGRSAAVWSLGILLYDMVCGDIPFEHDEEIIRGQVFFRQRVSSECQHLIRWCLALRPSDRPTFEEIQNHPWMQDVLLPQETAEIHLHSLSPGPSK
For assay [13], the target named is Casein kinase II subunit alpha (Homo sapiens, UniProt P68400). The class given is functional.
The target in assay [14] is DNA dC->dU-editing enzyme APOBEC-3G (Homo sapiens, UniProt Q9HC16). Briefly: inhibition of APOBEC3G ssDNA deamination – biochemical, fluorescence, single-stranded DNA substrate, SAR follow-up (AID 602136). The class given is functional. The following applies: read-out: IC50_Mean.
The target in assay [15] is DNA dC->dU-editing enzyme APOBEC-3A (Homo sapiens, UniProt P31941). Briefly: SAR analysis of small molecule inhibitors of APOBEC3A DNA Deaminase via a fluorescence-based single-stranded DNA deaminase assay. The class given is functional. To be noted: read-out: IC50_Mean.
Sequence of DNA dC->dU-editing enzyme APOBEC-3A (P31941 whole entry): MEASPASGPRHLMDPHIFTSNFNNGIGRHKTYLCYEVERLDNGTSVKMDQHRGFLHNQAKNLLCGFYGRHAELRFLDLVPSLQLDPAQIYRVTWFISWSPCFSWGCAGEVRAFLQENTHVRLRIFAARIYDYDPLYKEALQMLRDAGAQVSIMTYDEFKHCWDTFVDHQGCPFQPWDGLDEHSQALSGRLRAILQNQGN
Assay [16] concerns the target Sphingosine 1-phosphate receptor 3 (Homo sapiens, UniProt Q99500). As to the kind of experiment: Late-stage fluorescence-based dose-response cell-based counterscreen assay to identify agonists of the Sphingosine 1-Phosphate Receptor 4 (S1P4): Sphingosine 1-Phosphate Receptor 3 (S1P3) agonist assay Set 2. The class given is functional. Background: The purpose of a counterscreen is to sort out artefacts and off-target activity.

Assay [17] addresses Sphingosine 1-phosphate receptor 5 (Homo sapiens, UniProt Q9H228). As to the kind of experiment: activation of human S1P5 receptor – cell-based, fluorescence, set 2, counter-screen for S1P4 agonist project, late-stage follow-up (AID 504867). The class given is functional.
In assay [18] the target is Sphingosine 1-phosphate receptor 2 (Homo sapiens, UniProt O95136). Briefly: activation of human S1P2 receptor – cell-based, fluorescence, set 2, counter-screen for S1P4 agonist project, late-stage follow-up (AID 504873). The class given is functional.
Sequence of Sphingosine 1-phosphate receptor 2 (O95136 whole entry): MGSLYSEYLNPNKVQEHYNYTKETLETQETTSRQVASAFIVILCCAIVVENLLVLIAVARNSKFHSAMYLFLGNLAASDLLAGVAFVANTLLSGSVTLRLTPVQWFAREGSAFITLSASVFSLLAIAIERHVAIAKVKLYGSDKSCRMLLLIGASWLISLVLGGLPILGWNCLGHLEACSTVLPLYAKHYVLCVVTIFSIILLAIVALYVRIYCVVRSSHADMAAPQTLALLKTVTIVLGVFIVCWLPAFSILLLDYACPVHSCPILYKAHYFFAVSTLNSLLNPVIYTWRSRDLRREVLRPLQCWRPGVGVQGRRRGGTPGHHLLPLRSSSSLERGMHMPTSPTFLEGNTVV
The target in assay [19] is Sphingosine 1-phosphate receptor 1 (Homo sapiens, UniProt P21453). Briefly: Late-stage fluorescence-based dose-response cell-based counterscreen assay to identify agonists of the Sphingosine 1-Phosphate Receptor 4 (S1P4): Sphingosine 1-Phosphate Receptor 1 (S1P1) agonist assay Set 2. The class given is functional.
The target of assay [20] is Melanin-concentrating hormone receptor 1 (Homo sapiens, UniProt Q99705). Briefly: Late-stage fluorescence-based counterscreen for antagonists of the G-protein coupled receptor 7 (GPR7): cell-based dose response assay to identify antagonists of the melanin-concentrating hormone receptor 1 (MCHR1) Set 5. The class given is functional.
Sequence of Melanin-concentrating hormone receptor 1 (Q99705 whole entry): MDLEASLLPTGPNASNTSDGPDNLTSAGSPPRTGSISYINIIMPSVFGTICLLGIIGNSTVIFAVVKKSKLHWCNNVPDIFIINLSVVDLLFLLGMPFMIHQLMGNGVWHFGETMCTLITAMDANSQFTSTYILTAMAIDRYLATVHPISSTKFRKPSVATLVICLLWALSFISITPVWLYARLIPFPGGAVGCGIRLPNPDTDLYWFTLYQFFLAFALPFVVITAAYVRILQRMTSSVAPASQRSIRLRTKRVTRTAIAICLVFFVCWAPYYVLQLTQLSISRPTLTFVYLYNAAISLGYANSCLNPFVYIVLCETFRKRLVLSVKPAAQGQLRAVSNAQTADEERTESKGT
For assay [21], the target named is Neuropeptides B/W receptor type 1 (Homo sapiens, UniProt P48145). Briefly: human NPBW1 receptor blockade, IC50 – cell-based, fluorescence, dose response, set 5, late-stage follow-up (AID 588566). The class given is functional.
Assay [22] has as its target Leukocyte tyrosine kinase receptor (Homo sapiens, UniProt P29376). Briefly: Navigating the Kinome. Panel member name: LTK. The class given is functional.
Assay [23] has as its target Cyclin-dependent kinase 19 (Homo sapiens, UniProt Q9BWU1). As to the kind of experiment: Navigating the Kinome. Panel member name: CDC2L6. The class given is functional.
Assay [24] addresses High affinity nerve growth factor receptor (Homo sapiens, UniProt P04629). The class given is functional.
The target of assay [25] is Hepatocyte growth factor receptor (Homo sapiens, UniProt P08581). The class given is functional.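 Further: kinase panel profiling across the kinome, with MET as the panel member.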
Assay [26] has as its target Lymphokine-activated killer T-cell-originated protein kinase (Homo sapiens, UniProt Q96KB5). The class given is functional.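 Further: value comes from a kinase panel screen in which TOPK was one of the panel members.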
Assay [27] concerns the target MAP kinase-activated protein kinase 3 (Homo sapiens, UniProt Q16644). The class given is functional.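 Further: value comes from a kinome-wide profiling panel in which MAPKAPK3 is one of the panel members.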

Sequence of Wee1-like protein kinase (P30291 whole entry): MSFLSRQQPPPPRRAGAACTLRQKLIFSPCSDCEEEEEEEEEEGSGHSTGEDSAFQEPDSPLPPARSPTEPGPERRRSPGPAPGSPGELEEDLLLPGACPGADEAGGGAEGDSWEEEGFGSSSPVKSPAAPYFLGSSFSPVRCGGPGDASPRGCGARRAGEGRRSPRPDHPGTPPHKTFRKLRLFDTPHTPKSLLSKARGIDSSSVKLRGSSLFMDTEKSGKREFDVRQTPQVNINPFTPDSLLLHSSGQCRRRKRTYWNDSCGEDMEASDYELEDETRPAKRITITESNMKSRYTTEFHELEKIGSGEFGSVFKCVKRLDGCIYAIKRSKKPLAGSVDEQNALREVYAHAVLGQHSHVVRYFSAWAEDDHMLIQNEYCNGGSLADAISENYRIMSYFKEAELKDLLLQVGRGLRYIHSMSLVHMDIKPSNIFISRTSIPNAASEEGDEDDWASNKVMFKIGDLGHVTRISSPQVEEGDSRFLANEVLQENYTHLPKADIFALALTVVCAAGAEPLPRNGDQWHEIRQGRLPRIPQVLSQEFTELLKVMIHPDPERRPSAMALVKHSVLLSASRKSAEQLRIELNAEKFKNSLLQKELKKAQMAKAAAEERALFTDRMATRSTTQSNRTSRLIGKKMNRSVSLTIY
Sequence of MAP kinase-activated protein kinase 3 (Q16644 whole entry): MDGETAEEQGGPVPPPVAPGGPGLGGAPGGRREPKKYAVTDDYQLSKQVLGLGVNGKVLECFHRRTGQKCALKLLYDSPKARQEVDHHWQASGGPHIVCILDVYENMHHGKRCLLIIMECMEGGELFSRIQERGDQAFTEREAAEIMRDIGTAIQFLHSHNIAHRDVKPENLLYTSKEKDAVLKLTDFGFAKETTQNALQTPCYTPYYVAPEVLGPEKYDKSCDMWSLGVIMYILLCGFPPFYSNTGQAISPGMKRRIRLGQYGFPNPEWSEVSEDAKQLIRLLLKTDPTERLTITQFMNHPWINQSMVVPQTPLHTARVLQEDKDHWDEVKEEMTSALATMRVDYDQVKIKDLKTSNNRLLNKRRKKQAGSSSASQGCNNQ
Sequence of Sphingosine 1-phosphate receptor 3 (Q99500 whole entry): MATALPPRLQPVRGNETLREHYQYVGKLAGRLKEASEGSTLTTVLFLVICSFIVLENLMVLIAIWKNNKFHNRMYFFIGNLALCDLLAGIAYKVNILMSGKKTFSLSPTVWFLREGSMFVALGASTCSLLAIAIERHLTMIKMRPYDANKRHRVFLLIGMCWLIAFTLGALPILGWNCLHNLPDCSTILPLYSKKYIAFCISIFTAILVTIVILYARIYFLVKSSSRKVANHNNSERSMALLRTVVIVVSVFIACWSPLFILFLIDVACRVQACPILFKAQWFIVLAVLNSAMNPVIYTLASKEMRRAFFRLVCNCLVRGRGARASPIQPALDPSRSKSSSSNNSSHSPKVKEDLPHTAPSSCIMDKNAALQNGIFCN
Sequence of Leukocyte tyrosine kinase receptor (P29376 whole entry): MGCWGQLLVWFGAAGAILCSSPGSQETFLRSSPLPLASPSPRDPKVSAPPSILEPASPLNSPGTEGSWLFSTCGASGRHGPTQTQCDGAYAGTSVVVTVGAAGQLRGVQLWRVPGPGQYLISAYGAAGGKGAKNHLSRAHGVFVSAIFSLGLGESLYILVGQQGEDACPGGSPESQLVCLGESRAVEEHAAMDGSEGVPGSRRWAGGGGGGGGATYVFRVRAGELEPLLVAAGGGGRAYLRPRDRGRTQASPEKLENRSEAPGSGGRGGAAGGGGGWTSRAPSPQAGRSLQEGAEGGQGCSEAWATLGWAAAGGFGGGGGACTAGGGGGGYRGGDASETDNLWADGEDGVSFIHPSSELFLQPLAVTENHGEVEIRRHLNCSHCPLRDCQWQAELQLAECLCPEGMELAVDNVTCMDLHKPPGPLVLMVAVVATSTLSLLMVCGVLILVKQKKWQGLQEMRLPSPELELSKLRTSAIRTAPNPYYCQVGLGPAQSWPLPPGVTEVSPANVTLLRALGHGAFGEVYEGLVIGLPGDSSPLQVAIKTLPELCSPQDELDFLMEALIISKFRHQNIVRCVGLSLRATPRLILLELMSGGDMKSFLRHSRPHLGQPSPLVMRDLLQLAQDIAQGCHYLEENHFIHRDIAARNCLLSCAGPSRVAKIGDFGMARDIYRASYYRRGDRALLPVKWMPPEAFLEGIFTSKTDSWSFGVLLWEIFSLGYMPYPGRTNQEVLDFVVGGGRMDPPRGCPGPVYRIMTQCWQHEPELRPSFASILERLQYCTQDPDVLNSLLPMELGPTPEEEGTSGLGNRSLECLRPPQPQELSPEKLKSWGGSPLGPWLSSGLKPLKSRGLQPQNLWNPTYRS
Sequence of Cyclin-dependent kinase 19 (Q9BWU1 whole entry): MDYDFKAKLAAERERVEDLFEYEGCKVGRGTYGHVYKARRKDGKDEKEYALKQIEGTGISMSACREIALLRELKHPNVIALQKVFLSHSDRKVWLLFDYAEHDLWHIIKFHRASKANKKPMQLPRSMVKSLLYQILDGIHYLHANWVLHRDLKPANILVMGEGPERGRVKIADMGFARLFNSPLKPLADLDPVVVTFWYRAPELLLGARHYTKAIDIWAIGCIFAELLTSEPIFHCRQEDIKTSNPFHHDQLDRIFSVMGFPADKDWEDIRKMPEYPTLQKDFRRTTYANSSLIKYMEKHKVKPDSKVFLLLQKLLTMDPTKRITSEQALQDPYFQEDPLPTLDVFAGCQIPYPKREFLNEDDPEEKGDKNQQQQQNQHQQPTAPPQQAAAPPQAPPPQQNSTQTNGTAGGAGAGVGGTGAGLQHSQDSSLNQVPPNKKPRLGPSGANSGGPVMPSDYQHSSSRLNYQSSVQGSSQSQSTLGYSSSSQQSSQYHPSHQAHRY
Sequence of Sphingosine 1-phosphate receptor 5 (Q9H228 whole entry): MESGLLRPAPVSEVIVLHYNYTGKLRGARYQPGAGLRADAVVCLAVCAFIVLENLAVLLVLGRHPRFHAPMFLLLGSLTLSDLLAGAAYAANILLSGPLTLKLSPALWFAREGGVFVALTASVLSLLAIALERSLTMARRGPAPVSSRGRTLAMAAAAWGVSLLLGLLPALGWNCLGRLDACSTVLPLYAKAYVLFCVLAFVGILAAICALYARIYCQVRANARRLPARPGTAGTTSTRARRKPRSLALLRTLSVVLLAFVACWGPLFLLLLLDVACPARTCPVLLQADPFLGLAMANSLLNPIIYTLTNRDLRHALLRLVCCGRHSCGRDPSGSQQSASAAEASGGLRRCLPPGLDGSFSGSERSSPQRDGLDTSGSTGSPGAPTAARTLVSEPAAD

Turning to `CNc1nc(C)c(-c2ccnc(Nc3ccc(N4CCN(C(C)=O)CC4)cc3)n2)s1`, the figures for the Ki in assay [1] and in assay [2] were 0.2 µM (active) and 2.51 µM (active), respectively.
On to `c1ccc(-c2ncc3ccccn23)cc1`, for which the Ki in assay [3] is 10 µM (active); in assay [4] it was > 100 µM (inactive); in assay [5], 25.1 µM (active).
`CCC(Sc1nc(O)c2c(n1)CCC2)C(=O)Nc1cccc(OC)c1` (stereo not drawn): the CC50 in assay [6] was > 100 µM (active).
Turning to `Oc1ccc(CC2CC3CCN2CC3)cc1O` (stereo not drawn), the IC50 in [7] is 1.15 µM (active); in assay [9] it was 1.08 µM (active). Moreover, the AC50 in assay [8] is 3.81 µM (active).
In the case of `COc1ccc(C=C2C(=O)ON=C2c2ccc(Br)cc2)cc1`, the Ki is 2 µM (active) in assay [10], 1.58 µM (active) in assay [11], 1.58 µM (active) in assay [12] and 3.98 µM (active) in [13].
For the compound `CCc1nnc(NC(=O)Cc2c(F)cccc2Cl)s1`, the IC50 in [14] and in [15] was > 99 µM (inactive) throughout.
With `CC/N=C1/S/C(=C\c2cc(C)n(-c3ccccc3)c2C)C(=O)N1CC`, the EC50 in assay [16] is > 25 µM (inactive); in assay [17] it was 0.237 µM (active); in assay [18], > 25 µM (inactive); in assay [19], 0.0683 µM (active).
`CCOc1ccc(Sc2c(Cl)cnn(Cc3cccc4ccccc34)c2=O)cc1`: the IC50 in [20] is > 20 µM (inactive); in assay [21] it was 0.887 µM (active).
As to `CCc1cc(-c2n[nH]c(C)c2-c2ccc3c(c2)OCCO3)c(O)cc1O`, the Ki in assay [22] is 2.51 µM (active); in [23] it was > 100 µM (inactive); in [12], 1.58 µM (active); in assay [24], > 15.8 µM (inactive); in assay [25], 2.51 µM (active).
As for `COc1cc2ncnc(Nc3ccc(F)c(Cl)c3)c2cc1OCCCN1CCOCC1` [GEFITINIB], the Ki in assay [26] and in assay [27] was > 10 µM (inactive) each time.

In general, Ki refers to a dissociation constant, usually derived from enzyme kinetics or from competition with a known ligand. The CC50 is the concentration at which the toxic effect on the cells reaches its halfway point. What is called AC50 is the midpoint of the concentration-response curve, whichever way the signal moves. As usually defined, the EC50 is the concentration that produces a half-maximal response.
